# Experimental data from patent publication US20220347167A1, “A NEW TREATMENT FOR MEIBOMIAN GLAND DYSFUNCTION” (The Schepens Eye Research Institute, Inc., priority 2019, published 2022).
# How the values were obtained:
# [1] = tested on: IHMGECs; assay: Intracellular pH in IHMGECs; assay type: cell-based, human; conditions: exposure to Roxa, in vitro
# Text: It was recently discovered that a hypoxic environment is beneficial for meibomian gland (MG) function. The mechanism(s) underlying this effect was unknown, but may be due to an increase in the levels of hypoxia-inducible factor 1α (HIF1a). In other tissues, HIF1α is the primary regulator of cellular responses to hypoxia and HIF1α expression can be induced by multiple stimuli, including hypoxia and low oxygen mimetic agents. In the current studies described in this Example, human eyelid tissues were stained for HIF1α. Immortalized human MG epithelial cells (IHMGECs) were cultured for varying time periods under normoxic (21% O2) or hypoxic (1% O2) conditions, in the presence or absence of the low oxygen mimetic agent Roxadustat (Roxa). IHMGECs were then processed for the analysis of cell number, HIF1α expression, lipid-containing vesicles, neutral and polar lipid content, DNase II activity and intracellular pH. […] The data support that the beneficial effect of hypoxia on the MG is mediated through an increased expression of HIF1α.
# [2] = tested on: HMGECs; assay: Effect of low oxygen mimetic drugs on HMGEC function / lipid induction; assay type: cell-based, human
# [3] = tested on: IHMGECs; assay: Cell number of IHMGECs (hemocytometer); assay type: cell-based, human
# Experimental: After being treated with 21% O2, 1% O2, 10 μM Roxa or a combination for 10 days, cell numbers were counted with a hemocytometer and the cell lysates and cell culture supernatants were collected, as previously described in Liu et al. (2019) The ocular surface 17(2):310-317. DNase II activity in fresh samples was analyzed by SREDA in agarose gels according to published protocols in Liu et al. (2019) The ocular surface 17(2):310-317 and Oka et al. (2012) Nature 485:251-255. Cell lysates and culture media were used to measure the DNase II activity inside and outside of the cells, respectively [Liu et al. (2019) The ocular surface 17(2):310-317]. After incubation for 3-24 hours at 37° C., the area of the dark circle in the gel was measured under an UV trans-illuminator at 312 nm. For comparison between conditions, values were normalized to cell number.
# Low O2 increases DNase II activity and promotes cell terminal differentiation of IHMGECs (Liu et al. Ocul Surf 2019; 17:310-317). To determine whether Roxa treatment can reproduce this hypoxic effect, IHMGECs were treated with Roxa in both normoxic and 1% O2 conditions for 10 days, prior to counting cell numbers and analyzing DNase II activity in cell lysates and supernatants.
# [4] = Percentage of weight gain in ApoE −/− mice; assay type: in vivo, mouse; conditions: Roxa 10 mg/kg subcutaneous, three times per week for 12 weeks, vs vehicle, p<0.05
# Experimental: The whole blood samples of mice were collected by cardiac puncture after sacrificing. The blood samples were allowed to clot by leaving it undisturbed at room temperature for 15 minutes. The clot was removed by centrifuging at 1,000-2,000×g for 10 minutes in a refrigerated centrifuge. The resulting supernatant was designated serum. Then the cholesterol level in the serum was evaluated by using a commercially available cholesterol fluorometric assay kit (#10007640, Cayman Chemical, Mich.). The weight of each mice was measured before and after the experiment. The percentage of weight gain was compared between the Roxa-treated mice and the vehicle-treated mice.
# At the beginning of the study, the 16 ApoE−/− mice and 4 wild-type (WT) C57BL/6J mice, 12 weeks of age, were measured for their weight, tear volume, corneal fluorescein staining and tear breakup time (TBUT). The ApoE −/− mice were randomly divide into 2 groups (n=8 mice/group) and treated with vehicle control (2% DMSO in sterile saline, subcutaneous injection) or Roxa (10 mg/kg, subcutaneous injection). The injections were administrated three times per week (on Monday, Wednesday, and Friday mornings) for 12 weeks. […] At the end of the study, the weight, tear volume, corneal fluorescein staining and tear breakup time (TBUT) were measured again. […]
# [5] = tested on: MG cells; assay: Staining of dissected mouse eyelids for MG cell differentiation markers; assay type: in vivo; conditions: eyelids of Roxa-treated ApoE −/− mice
# Text: The mice eyelids were collected and dissected after sacrificing. The dissected samples were stained with different antibodies and dyes for lipids. For example, the dissected mice lid samples were stained with Oil Red O and LipidTox™ (Invitrogen) for evaluation of lipid accumulation. The sections were stained for pimonidazole, DNase II, HIF1α, PPARγ, Desmoglein and Desmocollin for the evaluation of cell differentiation and maturation. […] These markers include intracellular lipid accumulation, as well as expression of peroxisome proliferator-activated receptor gamma (PPAR-γ), Desmoglein and Desmocollin in MG cells.
smiles,measurement,setting,value
"Cc1nc(C(=O)NCC(=O)O)c(O)c2ccc(Oc3ccccc3)cc12 [Roxa, roxadustat]",pH in IHMGECs,[1],decreases
same,lipid-inducing effect in HMGECs compared with other low oxygen mimetic drugs,[2],stronger lipid-inducing effect
same,cell number of IHMGECs,"[3]; Roxa alone, 21% O2, 10 days",significant decreases
same,"cell number of IHMGECs, combination of Roxa and 1% O2","[3]; Roxa in 1% O2, 10 days",significant decreases
same,percentage of weight gain,[4],significantly reduced
same,expression of Desmocollin in MG cells,[5],promoted expression
same,expression of Desmoglein in MG cells,[5],promoted expression
same,expression of peroxisome proliferator-activated receptor gamma (PPAR-γ) in MG cells,[5],promoted expression
same,intracellular lipid accumulation in MG cells (differentiation marker),[5],promoted expression
